Laboratory results: patent US9630964B2, “Fluoro-9-methyl-β-carbolines” (priority 2013, dated 2017)

Experiments:
[1] = test system: BDNF (brain-derived neurotrophic factor); assay: Quantitative RT-PCR, relative gene expression of BDNF in SH-SY5Y cells; type: cell-based, human; details: 30 μM each, SH-SY5Y
Procedure: (§1) SH-SY5Y cell lines, which were provided by the institute of human genetics of university hospital Eppendorf and which they in turn received from Braunschweig resource center, were used again for the RT-PCR experiments (reverse transcriptase polymerase chain reaction) carried out for this purpose.
(§2) The cells were incubated in MEM (Minimum essential medium, Life Technologies) with 10% FCS (fetal calf serum, Biochrom AG) and penicillin/streptomycin (Biochrom AG). The cells were seeded with a density of 1×10^5 cells/cm^2 in 25 cm^2 cell culture bottles (Falcon, cell culture treated) with 5 mL medium. Stock solutions of 10 mmol/L of compounds 9-methyl-β-carboline (AC-002 or 9MβC) and 6-fluoro-9-methyl-β-carboline (AC-102 or 6F9MβC), respectively were prepared in distillated water and sterile filtered. One day after the cell seeding the compounds were added in corresponding amounts (5-55 μL) to reach final concentration in the medium of 10 μM, 20 μM and 30 μM for 6F9MβC and 30 μM, 50 μM and 70 μM for 9MβC. The references received only the corresponding amount of solvent (distilled water). The medium was changed once a week.
(§3) The cells were regularly microscopically examined and harvest after 2, 7 and 14 days of incubation time, washed with PBS and immediately frozen at −80° C.
The RNA-isolation was done with the HighPure RNA Isolation kit of the company Roche. […] The concentration of RNA was measured with nanoDrop spectrometer and the RNA integrity was determined with the aid of the Bioanalyzer 2100 (Agilent). […]
After the reaction, this run was diluted 1:4 and thereof 2 μL per each quantitative RT-PCR were used. This was performed in a LightCycler 480 under standard conditions in the SybrGreen format with annealing temperatures determined for each primer individually. […]
The specificity was verified by melting curve analysis and subsequent gel electrophoresis. For each PCR the PCR efficiency and the Cq value was determined by the program LinRegPCR and these were used in further calculations. […] Every measured value from FIGS. 5A-5I represents a mean value of 3 independent biologic samples. […]

[2] = test system: Lif (Leukemia inhibitory factor); assay: Quantitative RT-PCR, relative gene expression of Lif in SH-SY5Y cells; type: cell-based, human; details: 30 μM each
Procedure: as §1, §2, §3
(§4) The RNA-isolation was done with the HighPure RNA Isolation kit of the company Roche. This isolation includes a DNaseI digestion. The concentration of RNA was measured with nanoDrop spectrometer and the RNA integrity was determined with the aid of the Bioanalyzer 2100 (Agilent). By using random hexamer primers, protector RNA inhibitor (Roche) and transcriptor reverse transcriptase (fermentas), 300 ng RNA were transcribed into cDNA per each sample.
(§5) After the reaction, this run was diluted 1:4 and thereof 2 μL per each quantitative RT-PCR were used. This was performed in a LightCycler 480 under standard conditions in the SybrGreen format with annealing temperatures determined for each primer individually. If possible, exon spanning primers were used.
(§6) The specificity was verified by melting curve analysis and subsequent gel electrophoresis. For each PCR the PCR efficiency and the Cq value was determined by the program LinRegPCR and these were used in further calculations. B2M (β2-microglobulin) was identified from multiple reference genes to be suitable for examination conditions. All results are results relative to the corresponding reference conditions, at which only solvent was administered for the specified period of time (i.e. 2 days, 7 days or 14 days). In FIGS. 5A to 5I are also relative gene expressions (relative to reference conditions) presented. Here, the 2-day exposition is presented in light grey, the 7-day exposition in dark grey and the 14-day exposition in black. Every measured value from FIGS. 5A-5I represents a mean value of 3 independent biologic samples.
(§7) Analogous to example 4 RT-PCR experiments with the inventive active agent 7-fluoro-9-methyl-β-carboline (7F9MβC) were also performed for some important cellular factors. The experimental procedure was here identical to the experiments with 6-fluoro-9-methyl-β-carboline and 9-methyl-β-carboline. Here the same (like for 6F9MβC) final concentrations of 30 μM, 50 μM and 70 μM 7F9MβC for the culture medium were employed. The examined factors were BDNF (brain-derived neurotrophic factor), Lif (Leukemia inhibitory factor), DRD2S (short variant of dopamine receptor subtype 2) as well as DKK1 (Dickkopf-related protein 1). The same primers, that were already listed for the respective target genes in example 4 (Tab. 1) were used. As already noted, especially BDNF and Lif belongs to the most important factors for cellurar repair processes after traumas in the inner ear.

[3] = test system: DRD2S (short variant of dopamine receptor subtype 2); assay: Quantitative RT-PCR, relative gene expression of DRD2S in SH-SY5Y cells; type: cell-based, human; details: 30 μM each
Procedure: as §1, §2, §3, §4, §5, §6, §7

hearing threshold = assay: Acoustically evoked potentials: hearing threshold after acoustic trauma; type: in vivo; details: guinea pig, total 0.18 mg per ear
Procedure: To trigger an acoustic trauma, guinea pigs were anesthetized with 60 mg/kg ketamine and 8 mg/kg xylazine. Then Bepanten ointment (Bayer) was administered to the eyes and the animal was put in a soundproof chamber. A calibrated speaker was placed directly above the head of the animal, wherein it was set to emit a half octave band, centered around 8 kHz, with a volume of 110 dB for duration of 30 minutes.
As measure for evaluation of the hearing threshold of the guinea pig acoustically evoked potentials were measured. Therefore, the electrophysiological activity of the nerve cells in the brain stem that forward impulses from the inner ear was derived after sonication of the ear with 8, 11.3, 16, 22.6 and 32 kHz. The sonification was carried out ascendingly from 0 dB to 90 dB in single steps of 5 dB.
The measurement was carried out 3 days before the acoustic trauma (D-3), 30 minutes after the acoustic trauma (D0) as well as 14 days after the acoustic trauma (D14).
Per animal one ear was not treated and used as intra-individual control (hierin partly abbreviated to “contr.”) and the second ear was treated with 6-fluoro-9-methyl-β-carboline. Therefore, one hour after the acoustic trauma a dose of 0.12 mg 6-fluoro-9-methyl-β-carboline (in a hydrogel as vehicle) was administered intratympanically. 3 days after the acoustic trauma a further intratympanic administration of 0.06 mg 6-fluoro-9-methyl-β-carboline was carried out. The measurements were conducted on four guinea pigs (n=4).
Afterwards, the remaining shift of hearing threshold (also named as permanent shift of hearing threshold) was determined from the measured values before the acoustic trauma (D-3) and after 14 days (D14). From the measured values directly after the acoustic trauma (D0) and after 14 days (D14) the recovery from the trauma (D0-D14) was also determined.
Analogous to the above performed experiments with 6-fluoro-9-methyl-β-carboline, also corresponding experiments with 9-methyl-β-carboline were performed. The experimental procedure was nearly identical, wherein of course 9-methyl-β-carboline instead of 6-fluoro-9-methyl-β-carboline was used. The total dose of 9-methyl-β-carboline was here 0.2 mg and 0.35 mg per ear, respectively.

`Cn1c2ccc(F)cc2c2ccncc21` [6F9MβC, 6-fluoro-9-methyl-β-carboline] was tested, and the “BDNF expression relative to expression induced by 9MβC” value [1] was “approximately twice as high”, the “Lif expression relative to expression induced by 9MβC” value ([2]; 2-day exposition) was “approximately three times as high” and the “Lif expression relative to expression induced by 9MβC” value ([2]; 7-day exposition) was “slightly lower”. The “Lif expression relative to expression induced by 9MβC” value ([2]; 14-day exposition) was “approximately twice as high”, the “DRD2S expression relative to expression induced by 9MβC” value ([3]; 2-day exposition) was “higher” and the “DRD2S expression relative to expression induced by 9MβC” value ([3]; 7-day exposition) was “lower”. The “DRD2S expression relative to expression induced by 9MβC” value ([3]; 14-day exposition) was “higher”, the “improved recovery of hearing threshold (D0-D14) vs untreated ear” value (from here on “improved recovery … vs untreated ear”) (hearing threshold; 8 kHz) was “approximately 5 dB” and the “improved recovery … vs untreated ear” value (hearing threshold; 11.3 kHz) was roughly 25 dB. The “reduction of the hearing threshold (permanent shift D14-D-3) vs untreated control” value (hearing threshold; 11.3 kHz) was “approximately 20 dB”, the “improved recovery … vs untreated ear” value (hearing threshold; 16 kHz) was roughly 20 dB and the “reduction of the hearing threshold (permanent shift D14-D-3) vs untreated control” value (hearing threshold; 16 kHz) was roughly 30 dB.
